This note sets out measurements from article PMC11901818, “Salicylaldehyde Benzoylhydrazones with Anticancer Activity and Selectivity: Design, Synthesis, and In Vitro Evaluation” (Molecules, 2025).

Read-outs that look alike come from different tables or passages of the source. Some results are limits rather than exact numbers.

Test [1] relates to all cancer cell lines (five leukemia, MCF-7, MDA-MB-231). The experiment in a line: MTT test, average over all cancer cell lines. Format: cell-based, human. As to conditions: Avg. all cancers. As to the method: (§1) The ligand efficiencies (LEs), obtained by the ratio between pIC50 and the number of heavy atoms in the molecule, along with the selectivity indices (SIs), calculated by comparing IC50 of normal cells to IC50 of cancer cells, are presented in Table 4.
(§2) The spectrum of anti-tumor activity of the experimental compounds was assessed against human malignant cell lines of leukemic (HL-60, BV-173, K-562, AR-230, and SKW-3) and epithelial (MCF-7 and MDA-MB-231) origin, as well as normal human embryonic kidney cells (HEK-293). All cell lines were purchased from the German Collection of Microorganisms and Cell Cultures (DSMZ GmbH, Braunschweig, Germany), and cell cultures were maintained and grown in the appropriate medium specified by the provider and incubated under standard conditions of 37 °C and 5% humidified CO2 atmosphere.
(§3) The cytotoxicity assessment of the methoxysalicylaldehyde methoxybenzoylhydrazone series was performed using the Mosmann MTT method, a validated technique for evaluating cell viability. Cells in the exponential growth phase were harvested and seeded (100 µL/well) in 96-well plates at a suitable density (3 × 10^5 cells/well for suspension leukemic cultures and 1.5 × 10^5 cells/well for adherent epithelial cells). After a 24 h incubation period, the cells were treated with serial dilutions of the tested compounds within an appropriate concentration range. Following a 72 h exposure, an MTT substrate solution (5 mg/mL in PBS) was added to each well. After an additional 4 h incubation, purple insoluble formazan crystals formed. These crystals were then dissolved in an isopropyl alcohol solution containing 5% formic acid before measuring absorbance at 550 nm using a microplate reader Labexim LMR-1 (Vienna, Austria). The recorded absorbance values were blanked against MTT and isopropanol solution and normalized to the mean value of the untreated control (representing 100% cell viability). The experimental data were analyzed using non-linear regression analysis in GraphPad Prism® software 8.0 (San Diego, CA, USA), from which semi-logarithmic “dose–response” curves were constructed, and the half-inhibitory concentrations (IC50) of the tested compounds were calculated.
On the technique in general: Formazan colour is commonly taken as a measure of viable cells.

Test [2] concerns normal human embryonic kidney cells, HEK-293. The experiment in a line: Mosmann MTT cell viability test, HEK-293 (selectivity). Format: cell-based. As to conditions: HEK293, HEK-293 normal cells, 72 h exposure, ± standard deviation. As for the experimental part: (§4) The anticancer activity of the dimethoxy hydrazone derivatives was tested against a panel of malignant human cell lines of different tissue origin and molecular characteristics, including several in vitro leukemia models (acute promyelocytic leukemia HL-60; bcr-abl+ chronic myeloid leukemia cell lines BV-173, K-562, and AR-230; and T-cell leukemia SKW-3), as well as the two major phenotypes of human breast adenocarcinoma (hormone-sensitive MCF-7 cells with high progesterone (PR) and estrogen receptor α (ERα) expression and triple-negative breast adenocarcinoma (TNBC) MDA-MB-231 lacking ERα, PR, and human epidermal growth factor receptor 2 (HER2)). The existence and degree of cancer selectivity of the tested compounds were evaluated against normal human embryonic kidney HEK-293 cells.
as §2, §3

Test [3] concerns breast cancer cell lines (MCF-7, MDA-MB-231). Briefly: MTT test, average over breast cancer cell lines. Format: cell-based, human. The note with it: Avg. breast cancer. As for the experimental part:
as §1, §2
The cytotoxicity assessment of the methoxysalicylaldehyde methoxybenzoylhydrazone series was performed using the Mosmann MTT method, a validated technique for evaluating cell viability. Cells in the exponential growth phase were harvested and seeded (100 µL/well) in 96-well plates at a suitable density (3 × 10^5 cells/well for suspension leukemic cultures and 1.5 × 10^5 cells/well for adherent epithelial cells). After a 24 h incubation period, the cells were treated with serial dilutions of the tested compounds within an appropriate concentration range. […] These crystals were then dissolved in an isopropyl alcohol solution containing 5% formic acid before measuring absorbance at 550 nm using a microplate reader Labexim LMR-1 (Vienna, Austria). The recorded absorbance values were blanked against MTT and isopropanol solution and normalized to the mean value of the untreated control (representing 100% cell viability). The experimental data were analyzed using non-linear regression analysis in GraphPad Prism® software 8.0 (San Diego, CA, USA), from which semi-logarithmic “dose–response” curves were constructed, and the half-inhibitory concentrations (IC50) of the tested compounds were calculated.

For test [4], the system named is K-562 cells (bcr-abl+ chronic myeloid leukemia). Briefly: Mosmann MTT cell viability test, K-562. The note with it: for IC50: Homo sapiens, K562, K-562, MTT, 72 h exposure, ± standard deviation; for Selectivity index (SI): IC50 HEK-293 / IC50 K-562. Format: cell-based, human. As for the experimental part: as §4, §2, §3
Test [5] deals with BV-173 cells (bcr-abl+ chronic myeloid leukemia). The experiment in a line: Mosmann MTT cell viability test, BV-173. Format: cell-based, human. As to conditions: for IC50: Homo sapiens, BV-173, MTT, 72 h exposure, ± standard deviation; for Selectivity index (SI): IC50 HEK-293 / IC50 BV-173. As to the method:
as §4, §2, §3

For a further test, the system named is MDA-MB-231 cells (TNBC). The experiment in a line: Mosmann MTT cell viability test, MDA-MB-231. It counts as cell-based, human. As to conditions: for IC50: Homo sapiens, MDA-MB-231, MTT, 72 h exposure, ± standard deviation; for Selectivity index (SI): IC50 HEK-293 / IC50 MDA-MB-231. As for the experimental part: as §4, §2, §3
Test [6] deals with SKW-3 cells (T-cell leukemia). The experiment in a line: Mosmann MTT cell viability test, SKW-3. Format: cell-based, human. The note with it: for IC50: SKW-3, MTT, 72 h exposure, ± standard deviation; for Selectivity index (SI): IC50 HEK-293 / IC50 SKW-3. As for the experimental part: as §4, §2, §3
Test [7] has as its system AR-230 cells (bcr-abl+ chronic myeloid leukemia). The experiment in a line: Mosmann MTT cell viability test, AR-230. It counts as cell-based, human. As to conditions: for IC50: AR-230, MTT, 72 h exposure, ± standard deviation; for Selectivity index (SI): IC50 HEK-293 / IC50 AR-230. As to the method: as §4, §2, §3
Test [8] concerns leukemia cell lines (BV-173, K-562, SKW-3, AR-230, and HL-60). The experiment in a line: MTT test, average over leukemia cell lines. Format: cell-based, human. As to conditions: Avg. leukemia. As for the experimental part: as §1, §2, §3
Test [9] deals with MCF-7 cells (breast ER+ adenocarcinoma). Briefly: Mosmann MTT cell viability test, MCF-7. It counts as cell-based, human. The note with it: for IC50: Homo sapiens, MCF7, MCF-7, MTT, 72 h exposure, ± standard deviation; for Selectivity index (SI): IC50 HEK-293 / IC50 MCF-7. As for the experimental part:
as §4, §2, §3

Test [10] has as its system HL-60 cells (acute promyelocytic leukemia). The experiment in a line: Mosmann MTT cell viability test, HL-60. Format: cell-based, human. As to conditions: for IC50: Homo sapiens, HL-60, MTT, 72 h exposure, ± standard deviation; for Selectivity index (SI): IC50 HEK-293 / IC50 HL-60. As for the experimental part: as §4, §2, §3

As for `COc1ccccc1C(=O)NN=Cc1cccc(OC)c1O` [Compound 1, N′-(2-hydroxy-3-methoxybenzylidene)-2-methoxybenzohydrazide], the “Selectivity index (SI)” value is above 7 in [1]; above 4 in [3]; above 5 in test [4]; above 3 in test [5]; above 5 in the test with MDA-MB-231 cells (TNBC); above 23 in test [6]. Besides, the “Selectivity index (SI)” value is on record as above 2 in test [7], above 8 in test [8], above 3 in [9] and above 9 in test [10]. The IC50 – broadly, the concentration that gives 50% inhibition – was above 100 µM in test [2]; 20.4 ± 2.9 µM in test [4]; 33.5 ± 3.4 µM in test [5]; 22 ± 2.8 µM with MDA-MB-231 cells (TNBC); 4.3 ± 0.5 µM in test [6] (Homo sapiens, SKW3, 72 h); 50.5 ± 6.6 µM in test [7] (Homo sapiens, read-out: IC50). Further, the concentration for half-maximal inhibition (IC50) was 30.1 ± 3.2 µM in test [9] and 11.2 ± 2.1 µM in test [10].
On to `COc1cccc(C(=O)NN=Cc2ccc(OC)cc2O)c1` [Compound 4, N′-(2-hydroxy-4-methoxybenzylidene)-3-methoxybenzohydrazide], for which the “Selectivity index (SI)” value is on record as 4 in [1]; 5 in test [4]; 4 in [5]; 11 in test [6]; 2 in [7]; 5 in [8]. Besides, the “Selectivity index (SI)” value in test [10] was found to be 4. For the same molecule, the IC50 in test [2] is 8.6 ± 1.5 µM; in test [4], 1.6 ± 0.2 µM; in test [5], 2.2 ± 0.3 µM; in the test with MDA-MB-231 cells (TNBC), 19.8 ± 3.1 µM; in test [6] (Homo sapiens, SKW3, 72 h) it was below 1 µM; in [6], 0.8 ± 0.1 µM. Besides, the IC50 in test [7] (Homo sapiens, read-out: IC50) was found to be 4.5 ± 0.4 µM; in [9] it was 23.3 ± 2.7 µM; in test [10], 2.1 ± 0.2 µM.
For the molecule `COc1ccc(C(=O)NN=Cc2ccc(OC)cc2O)cc1` [Compound 5, N′-(2-hydroxy-4-methoxybenzylidene)-4-methoxybenzohydrazide], the “Selectivity index (SI)” value in test [1] is 7; in [4] it was 7; in test [5], 7; in test [6], 21; in test [7], 9; in test [8], 9. Also, the “Selectivity index (SI)” value in [10] amounted to 2. The IC50 was 10.4 ± 1.1 µM in [2]; 1.5 ± 0.1 µM in test [4]; 1.4 ± 0.2 µM in test [5]; 60.1 ± 5 µM in the test on MDA-MB-231 cells (TNBC); below 1 µM in [6] (Homo sapiens, SKW3, 72 h); 0.5 ± 0.1 µM in test [6]. In addition, the IC50 came to 1.1 ± 0.2 µM in [7] (Homo sapiens, read-out: IC50); 21.3 ± 1.9 µM in [9]; 4.7 ± 0.5 µM in test [10].
As for `COc1cccc(C(=O)NN=Cc2cccc(OC)c2O)c1` [Compound 2, N′-(2-hydroxy-3-methoxybenzylidene)-3-methoxybenzohydrazide], the “Selectivity index (SI)” value in test [1] came out at 5; in [3] it was 1; in test [4] it was 8; in test [5], 6; in the test on MDA-MB-231 cells (TNBC), 1; in [6], 12. In addition, the “Selectivity index (SI)” value in [7] was 3; in test [8] it was 7; in test [9], 1; in test [10], 5. Besides, the IC50 turned out to be 16.8 ± 2.3 µM in [2]; 2.1 ± 0.1 µM in [4]; 2.7 ± 0.2 µM in [5]; 26.9 ± 3.3 µM in the test with MDA-MB-231 cells (TNBC); 1.4 ± 0.1 µM in [6] (Homo sapiens, SKW3, 72 h); 5.9 ± 0.7 µM in [7] (Homo sapiens, read-out: IC50). The IC50 in test [9] is 25.6 ± 2.8 µM; in test [10] it was 3.6 ± 0.3 µM.
For `COc1ccc(C(=O)NN=Cc2cccc(OC)c2O)cc1` [Compound 3, N′-(2-hydroxy-3-methoxybenzylidene)-4-methoxybenzohydrazide], the “Selectivity index (SI)” value is reported as above 20 in test [1]; above 4 in test [3]; above 36 in test [4]; above 19 in test [5]; above 4 in the test with MDA-MB-231 cells (TNBC); above 37 in test [6]. Moreover, the “Selectivity index (SI)” value was above 1 in test [7], above 27 in test [8], above 3 in test [9] and above 42 in [10]. For the same molecule, the IC50 is above 100 µM in test [2]; 2.8 ± 0.4 µM in test [4]; 2.7 ± 0.2 µM in test [5]; 23.5 ± 3.4 µM in the test on MDA-MB-231 cells (TNBC); 2.7 ± 0.3 µM in test [6] (Homo sapiens, SKW3, 72 h); “not active” in test [7]. In addition, the IC50 is above 100 µM in test [7] (Homo sapiens, read-out: IC50); 36.1 ± 4.4 µM in test [9]; 2.4 ± 0.1 µM in [10].
